These results are taken from article PMC6145916, “Interaction of mitochondrial fission factor with dynamin related protein 1 governs physiological mitochondrial function in vivo” (Scientific Reports, 2018).

Broadly, the Kd is the equilibrium constant for the complex coming apart.

The subject of test [1] is neuroblastoma SH-SY5Y cells. As to the kind of experiment: Mitochondrial morphology (Tom20 immunofluorescence), SH-SY5Y. The format is cell-based, human. To be noted: 4 µM TAT-P259 or 10 µM Mdivi-1, 30-minute treatment; n = 3, 10 images each. On the procedure:
Represented Western blot is cropped from a full blot shown in the Expanded Western Blots section of the Supplementary Information. […] Hoechst 33342 is shown in blue and Tom20 in green (n = 3, 10 images each). Below, quantification of the form factor (degree of branching) and major axis length (length of mitochondria). At least 6,000 mitochondrial fragments were measured for each condition. Mitochondrial reactive oxygen species (ROS) production (MitoSox Red) (c) and mitochondrial membrane potential (TMRM) (d) after overnight treatment with indicated concentrations of peptide or FCCP. Data are from 3 independent experiments per condition normalized to the average no peptide value. (e) Relative mitochondrial ROS (MitoSox Red) signal in GFP positive cells expressing full-length or alanine-substituted P259 at indicated amino acids after two days of transfection. Values are normalized to a GFP empty vector (n = 3, with 3 replicates). […] Data are mean ± s.e. […]
Cells were fixed onto Permanox plastic slides with 4% paraformaldehyde in PBS for 10 minutes at room temperature. Cells were permeabilized in 0.1% Triton X-100 and 1% normal goat serum (blocking buffer) for one hour at room temperature. Permeabilized cells were incubated overnight with primary anti-Tom20 antibody (Santa Cruze Biotech, sc-11415, 1:250 dilution) in a humidified chamber. Slides were subsequently incubated with FITC-conjugated goat anti-rabbit IgG for two hours at room temperature in a light-shielding humidified chamber. Cells were washed with blocking buffer and stained with Hoechst 33342 (Invitrogen, OR, USA, […]). Coverslips were mounted with a Slowfade antifade solution (Invitrogen, OR, USA). Images were acquired using an LSM 700 confocal laser-s canning microsc ope equipped with a Plan Apochromat 63x/1.4 NA oil-immersion objective (Zeiss).
Mitochondrial morphology analysis
High-throughput image analysis of mitochondrial morphology was performed using MATLAB with the Image Processing toolkit. Background illumination, obtained by morphological opening of the image, was subtracted from the original image. The image was then passed through a top - hat transformation to highlight objects from the background followed by a pixel-wis e adaptive low-pas s Wiener filter to remove noise. A 90th percentile threshold was used to convert the image to a binary image. Erroneously large and small objects were removed from the image and morphological features were extracted from the binary objects. Major axis length is defined as th e length of the longest line that can be drawn through a binary object while the minor axis length is defined as the length of the shortest line. The aspect ratio is defined by the major axis length divided by the minor axis length. […]

Test [2] has as its system Drp1. To be noted: cited from earlier work. The source says: However, Mdivi-1 cannot distinguish between Drp1′s physiological and pathological activities. […] Strikingly, while inhibiting the interaction between Drp1 and Fis1 slo ...
In test [3] the test system is SH-SY5Y cells. As to the kind of experiment: Mitochondrial ROS (MitoSox Red) in GFP positive SH-SY5Y cells expressing P259 or alanine-substituted P259. The format is cell-based, human. To be noted: P259 sequence alone (no TAT carrier) expressed from vector, two days, relative to empty GFP vector; n = 3, with 3 replicates. On the procedure: Represented Western blot is cropped from a full blot shown in the Expanded Western Blots section of the Supplementary Information. […] Hoechst 33342 is shown in blue and Tom20 in green (n = 3, 10 images each). Below, quantification of the form factor (degree of branching) and major axis length (length of mitochondria). At least 6,000 mitochondrial fragments were measured for each condition. Mitochondrial reactive oxygen species (ROS) production (MitoSox Red) (c) and mitochondrial membrane potential (TMRM) (d) after overnight treatment with indicated concentrations of peptide or FCCP. Data are from 3 independent experiments per condition normalized to the average no peptide value. (e) Relative mitochondrial ROS (MitoSox Red) signal in GFP positive cells expressing full-length or alanine-substituted P259 at indicated amino acids after two days of transfection. Values are normalized to a GFP empty vector (n = 3, with 3 replicates). […] Data are mean ± s.e.
Using mitochondrial ROS as a phenotypic output, we determined which residues of P259 were necessary for its function.
DMI6000B inverted microscope. All mitochondria were imaged with a GFP fi lter. Then, green […]
filter every 30 seconds for 5 minutes. […]
GFP filter (Keyence). […] The GFP and MitoSox signals were measured in a ring around each nucleus. Average MitoSox levels were quantified in […]

The target of test [4] is T1, recombinant human Drp1 (dynamin related protein 1) (human, UniProt O00429 1-736).
T1 construct: dynamin related protein 1 (Drp1), human, recombinant; details may stand in the Supplementary Methods; also called recombinant Drp1
T1 sequence (O00429 whole entry): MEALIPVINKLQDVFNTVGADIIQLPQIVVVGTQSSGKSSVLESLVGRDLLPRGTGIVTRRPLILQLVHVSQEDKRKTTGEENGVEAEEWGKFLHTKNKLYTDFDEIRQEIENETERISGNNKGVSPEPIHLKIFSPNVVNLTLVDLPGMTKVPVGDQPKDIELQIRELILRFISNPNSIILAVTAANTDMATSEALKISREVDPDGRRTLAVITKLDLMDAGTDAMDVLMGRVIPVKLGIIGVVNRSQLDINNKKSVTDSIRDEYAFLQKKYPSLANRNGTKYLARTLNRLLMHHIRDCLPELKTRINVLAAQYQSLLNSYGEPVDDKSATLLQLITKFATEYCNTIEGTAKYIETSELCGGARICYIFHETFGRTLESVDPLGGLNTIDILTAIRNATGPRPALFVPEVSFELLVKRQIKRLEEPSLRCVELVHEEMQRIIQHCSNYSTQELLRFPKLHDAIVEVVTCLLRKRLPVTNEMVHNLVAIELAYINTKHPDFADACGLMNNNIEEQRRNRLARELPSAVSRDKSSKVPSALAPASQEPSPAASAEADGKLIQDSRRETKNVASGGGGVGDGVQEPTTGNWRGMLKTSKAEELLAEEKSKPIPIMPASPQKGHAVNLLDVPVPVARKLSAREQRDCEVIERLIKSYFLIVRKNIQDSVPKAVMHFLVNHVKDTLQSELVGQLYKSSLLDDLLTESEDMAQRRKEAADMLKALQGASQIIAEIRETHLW
As to the kind of experiment: graphene surface with transistors measuring electrical conductance. As to conditions: both partners purified.

Regarding `COc1cc(-n2c(=S)[nH]c3ccccc3c2=O)c(Cl)cc1Cl` [Mdivi-1, reference compound], the mitochondrial morphology entry in test [1] is reported as “These effects were similar to treatment with Mdivi-1”. For the same molecule, the “GTPase activity of Drp1” value in test [2] is listed as “inhibitor of the GTPase activity of Drp1”.
Regarding IIQLPEIVVV [P259 peptide], the “mitochondrial ROS levels (MitoSox) in GFP-positive cells” value in test [3] was “doubled mitochondrial ROS levels”.

B1: P259 (peptide, UniProt O00429 22-31, looked up)
peptide: IIQLPEIVVV
notes: dynamin related protein 1 (Drp1), residues 22-31, with glutamine 27 replaced by glutamate as found in Mff; The text introduces the TAT carrier only for the cell experiments; whether the in vitro peptide carried it may be told in the Supplementary Methods; also called peptide P259
On to B1, for which, in test [4], the Kd was 12 nM.
